According to the supplement of paper PMC10307832:

Tests used:
Experiment in all cases: relative viability (nuclei count vs DMSO), 5 days (fraction); higher = more cells survive
[1] = compound: C1=CC(=CC=C1C2=CC(=C(S2)NC(=O)N)C(=O)N)F [TPCA-1] + CS(=O)(=O)CCNCc1ccc(-c2ccc3ncnc(Nc4ccc(OCc5cccc(F)c5)c(Cl)c4)c3c2)o1 [Lapatinib] (partner 2 µM)
Method in brief: (§1)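 Values are medians from duplicate plates. Each reflects relative viability, defined as the nuclei count of treated wells over that of vehicle wells. Lung cancer cell lines in 1536-well plates were pin-tool dosed one day after seeding with one drug alone or with a fixed anchor-drug dose plus five library-drug doses (not always all listed) in √10 steps, then fixed, stained and imaged at 4× after 5 days.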

[2] = compound: C1/C(=C\C2=CC=CS2)/C(=O)/C(=C/C3=CC=CS3)/C1 + CS(=O)(=O)N1CCN(Cc2cc3nc(-c4cccc5[nH]ncc45)nc(N4CCOCC4)c3s2)CC1 [Pictilisib] (partner 1 µM)
Method in brief: as §1

[3] = compound: C1=CC(=CC=C1C2=CC(=C(S2)NC(=O)N)C(=O)N)F [TPCA-1] + O=C(c1cc(Cc2n[nH]c(=O)c3ccccc23)ccc1F)N1CCN(C(=O)C2CC2)CC1 [Olaparib] (partner 8 µM)
Method in brief: as §1

[4] = compound: C1/C(=C\C2=CC=CS2)/C(=O)/C(=C/C3=CC=CS3)/C1 + CC(=O)c1c(C)c2cnc(Nc3ccc(N4CCNCC4)cn3)nc2n(C2CCCC2)c1=O [Palbociclib] (partner 0.5 µM)
Method in brief: as §1

| Cell Line | relative viability ([1]; first compound 0.04 µM) | relative viability ([1]; first compound 0.1265 µM) | relative viability ([1]; first compound 0.4 µM) | relative viability ([1]; first compound 1.265 µM) | relative viability ([1]; first compound 4 µM) | relative viability ([2]; first compound 0.2 µM) | relative viability ([2]; first compound 0.6325 µM) | relative viability ([2]; first compound 2 µM) | relative viability ([2]; first compound 6.325 µM) | relative viability ([2]; first compound 20 µM) | relative viability ([3]; first compound 0.04 µM) | relative viability ([3]; first compound 0.1265 µM) | relative viability ([3]; first compound 0.4 µM) | relative viability ([3]; first compound 1.265 µM) | relative viability ([3]; first compound 4 µM) | relative viability ([4]; first compound 0.2 µM) | relative viability ([4]; first compound 0.6325 µM) | relative viability ([4]; first compound 2 µM) | relative viability ([4]; first compound 6.325 µM) | relative viability ([4]; first compound 20 µM) |
| --- | --- | --- | --- | --- | --- | --- | --- | --- | --- | --- | --- | --- | --- | --- | --- | --- | --- | --- | --- | --- |
| NCI-H1734 | 1.21 | 0.946 | 1.13 | 1.02 | 0.623 | 0.466 | 0.447 | 0.487 | 0.44 | 0.501 | 0.648 | 0.559 | 0.692 | 0.561 | 0.463 | 0.386 | 0.336 | 0.346 | 0.225 | 0.359 |
| NCI-H520 | 0.905 | 0.752 | 0.879 | 0.756 | 0.168 | 0.284 | 0.369 | 0.303 | 0.277 | 0.311 | 0.409 | 0.353 | 0.391 | 0.373 | 0.344 | 0.256 | 0.251 | 0.223 |  | 0.227 |
| NCI-H1650 | 0.945 | 0.713 | 0.921 | 0.791 | 0.219 | 0.618 | 0.584 | 0.672 | 0.567 | 0.598 | 0.893 | 0.826 | 0.758 | 0.822 | 0.863 | 0.312 | 0.325 | 0.351 | 0.373 | 0.333 |
| NCI-H1355 | 1.15 | 0.879 | 0.956 | 0.818 | 0.719 | 0.519 | 0.401 | 0.411 | 0.391 | 0.474 | 0.8 | 0.633 | 0.796 | 0.694 | 0.396 | 0.381 | 0.379 | 0.408 | 0.34 | 0.382 |
| NCI-H1915 | 1.06 | 0.984 | 1.03 | 0.875 | 0.813 | 0.953 | 0.896 | 0.981 | 0.839 | 0.788 | 0.28 | 0.266 | 0.26 | 0.274 | 0.219 | 0.507 | 0.55 | 0.515 | 0.459 | 0.5 |
| BEN | 0.731 | 0.5 | 0.672 | 0.793 | 0.661 | 0.551 | 0.628 | 0.612 | 0.519 | 0.491 | 1.08 | 0.977 | 1.32 | 1.04 | 0.869 | 0.504 | 0.531 | 0.511 | 0.411 | 0.518 |
| NCI-H3122 | 1.03 | 0.939 | 0.985 | 1.05 | 0.976 | 0.681 | 0.579 | 0.718 | 0.466 | 0.642 | 0.627 | 0.605 | 0.594 | 0.588 | 0.439 | 0.178 | 0.175 | 0.172 | 0.201 | 0.171 |
| SK-MES-1 | 0.479 | 0.402 | 0.429 | 0.471 | 0.34 | 0.282 | 0.355 | 0.391 | 0.268 | 0.382 | 0.696 | 0.577 | 0.801 | 0.611 | 0.369 | 0.347 | 0.321 | 0.329 | 0.311 | 0.292 |
